Tests used:
Assay type in all cases: in vivo
[1] = test system: Spodoptera littoralis; experiment: Spodoptera littoralis (Egyptian cotton leaf worm), sprayed cotton leaf discs; settings: foliar, 72 h, application rate 200 ppm, L1 larvae on cotton leaf discs, 3 days after infestation, read-out: control (at least one of mortality, anti-feedant effect, growth inhibition)
Procedure: Cotton leaf discs were placed on agar in 24-well microtiter plates and sprayed with aqueous test solutions prepared from 10′000 ppm DMSO stock solutions. After drying the leaf discs were infested with five L1 larvae. The samples were assessed for mortality, anti-feedant effect, and growth inhibition 3 days after infestation. Control of Spodoptera littoralis by a test sample is noted when at least one of mortality, anti-feedant effect, and growth inhibition is better than the untreated sample.

[2] = test system: Thrips tabaci; experiment: Thrips tabaci (onion thrips), sprayed sunflower leaf discs; settings: foliar, 144 h, application rate 200 ppm, mixed ages on sunflower leaf discs, 6 days after infestation, read-out: control (mortality)
Procedure: Sunflower leaf discs were placed on agar in 24-well microtiter plates and sprayed with aqueous test solutions prepared from 10′000 ppm DMSO stock solutions. After drying the leaf discs were infested with a thrips population of mixed ages. The samples were assessed for mortality 6 days after infestation.

[3] = test system: Tetranychus urticae; experiment: Tetranychus urticae (two-spotted spider mite), sprayed bean leaf discs; settings: foliar, 192 h, application rate 200 ppm, mixed ages on bean leaf discs, 8 days after infestation, read-out: control (mortality, mobile stages)
Procedure: Bean leaf discs on agar in 24-well microtiter plates were sprayed with aqueous test solutions prepared from 10′000 ppm DMSO stock solutions. After drying the leaf discs were infested with a mite population of mixed ages. The samples were assessed for mortality (mobile stages) 8 days after infestation.

[4] = test system: Plutella xylostella; experiment: Plutella xylostella (diamond back moth), artificial diet; settings: 120 h, application rate 200 ppm, L2 larvae on artificial diet, 5 days after infestation, read-out: control (at least one of mortality, growth inhibition)
Procedure: 24-well microtiter plates with artificial diet were treated with aqueous test solutions prepared from 10′000 ppm DMSO stock solutions by pipetting. After drying, the plates were infested with L2 larvae (10 to 15 per well). The samples were assessed for mortality and growth inhibition 5 days after infestation. Control of Plutella xyllostella by a test sample is noted when at least one of mortality and growth inhibition is better than the untreated sample.

[5] = test system: Diabrotica balteata; experiment: Diabrotica balteata (corn root worm), sprayed maize sprouts; settings: 96 h, application rate 200 ppm, L2 larvae on sprayed maize sprouts, 4 days after infestation, read-out: control (at least one of mortality, growth inhibition)
Procedure: Maize sprouts, placed on an agar layer in 24-well microtiter plates were treated with aqueous test solutions prepared from 10′000 ppm DMSO stock solutions by spraying. After drying, the plates were infested with L2 larvae (6 to 10 per well). The samples were assessed for mortality and growth inhibition 4 days after infestation. Control of Diabrotica balteata by a test sample is noted when at least one of mortality and growth inhibition is better than the untreated sample.

[6] = test system: Heliothis virescens; experiment: Heliothis virescens (tobacco budworm), eggs on artificial diet; settings: application rate 200 ppm, eggs 0-24 h old on artificial diet, 5 days after infestation, read-out: control (at least one of egg mortality, larval mortality, growth inhibition)
Procedure: Eggs (0-24 h old) were placed in 24-well microtiter plates on artificial diet and treated with aqueous test solutions prepared from 10′000 ppm DMSO stock solutions by pipetting. The samples were assessed for egg mortality, larval mortality and growth inhibition 5 days after infestation. Control of Heliothis virescens by a test sample is noted when at least one of egg mortality, larval mortality and growth inhibition is better than the untreated sample.

CCN1OC[C@@H](NC(=O)c2ccc(C3=CS[C@](c4cc(Cl)cc(Cl)c4)(C(F)(F)F)C3)cc2C)C1=O [Compound D3, 4-[(2R)-2-(3,5-dichlorophenyl)-2-(trifluoromethyl)-3H-thiophen-4-yl]-N-[(4R)-2-ethyl-3-oxo-isoxazolidin-4-yl]-2-methyl-benzamide]
≥ 80%: percent control (mortality, anti-feedant effect or growth inhibition) at 200 ppm [1] | mortality at 200 ppm [2] | mortality at 200 ppm [3] | mortality at 200 ppm [4] | mortality at 200 ppm [5] | mortality at 200 ppm [6]

Cc1cc(C2=CS[C@](c3cc(Cl)cc(Cl)c3)(C(F)(F)F)C2)ccc1C(=O)N[C@H]1C[S@@+]([O-])C1 [Compound D4, 4-[(2R)-2-(3,5-dichlorophenyl)-2-(trifluoromethyl)-3H-thiophen-4-yl]-2-methyl-N-(1-oxothietan-3-yl)benzamide]
≥ 80%: percent control (mortality, anti-feedant effect or growth inhibition) at 200 ppm [1] | mortality at 200 ppm [2] | mortality at 200 ppm [3] | mortality at 200 ppm [4] | mortality at 200 ppm [5] | mortality at 200 ppm [6]

CCN1OC[C@@H](NC(=O)c2ccc(C3=CS[C@@](c4cc(Cl)cc(Cl)c4)(C(F)(F)F)C3)cc2C)C1=O [Compound D7, 4-[(2S)-2-(3,5-dichlorophenyl)-2-(trifluoromethyl)-3H-thiophen-4-yl]-N-(2-ethyl-3-oxo-isoxazolidin-4-yl)-2-methyl-benzamide]
≥ 80%: percent control (mortality, anti-feedant effect or growth inhibition) at 200 ppm [1] | mortality at 200 ppm [2] | mortality at 200 ppm [3] | mortality at 200 ppm [4] | mortality at 200 ppm [5]

Cc1cc(C2=CS[C@@](c3cc(Cl)cc(Cl)c3)(C(F)(F)F)C2)ccc1C(=O)N[C@H]1C[S@@+]([O-])C1 [Compound D8, 4-[(2S)-2-(3,5-dichlorophenyl)-2-(trifluoromethyl)-3H-thiophen-4-yl]-2-methyl-N-(1-oxothietan-3-yl)benzamide]
≥ 80%: percent control (mortality, anti-feedant effect or growth inhibition) at 200 ppm [1] | mortality at 200 ppm [2] | mortality at 200 ppm [3] | mortality at 200 ppm [4] | mortality at 200 ppm [5]

From patent publication US10517294B2, “Dihydrothiophene derivatives as insecticidal compounds” (priority 2012, dated 2019)
